{"source": "the supplement of paper PMC10307832", "assay_in_all_cases": "relative viability (nuclei count vs DMSO), 5 days (fraction); higher = more cells survive", "key": {"[1]": {"system": "COR-L 105", "outline": "(§1)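 One day after seeding in 1536-well plates, lung cancer cell lines were dosed by pin tool. Dosing was either single-drug or a fixed anchor-drug dose plus five library-drug doses (not always all listed) in √10 steps. After 5 days, nuclei were stained in one fix-and-stain step and counted on 4× images, and relative viability is the nuclei count of treated wells over that of vehicle wells, given as the median of duplicate plates.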"}, "[2]": {"system": "COR-L23", "outline": "as §1"}, "[3]": {"system": "HARA", "outline": "as §1"}, "[4]": {"system": "HCC-15", "outline": "as §1"}, "[5]": {"system": "HOP-62", "outline": "as §1"}, "[6]": {"system": "NCI-H1355", "outline": "as §1"}, "[7]": {"system": "NCI-H1395", "outline": "as §1"}, "[8]": {"system": "NCI-H1734", "outline": "as §1"}, "[9]": {"system": "NCI-H1755", "outline": "as §1"}, "[10]": {"system": "NCI-H1792", "outline": "as §1"}, "[11]": {"system": "NCI-H1793", "outline": "as §1"}, "[12]": {"system": "NCI-H1993", "outline": "as §1"}, "[13]": {"system": "NCI-H2009", "outline": "as §1"}, "[14]": {"system": "NCI-H2170", "outline": "as §1"}, "[15]": {"system": "NCI-H2347", "outline": "as §1"}, "[16]": {"system": "NCI-H358", "outline": "as §1"}, "[17]": {"system": "NCI-H522", "outline": "as §1"}, "[18]": {"system": "NCI-H647", "outline": "as §1"}, "[19]": {"system": "NCI-H838", "outline": "as §1"}, "[20]": {"system": "SK-MES-1", "outline": "as §1"}, "[21]": {"system": "UMC-11", "outline": "as §1"}}, "data": [{"smiles": "COc1cc2nccc(Oc3ccc(NC(=O)Nc4cc(C)on4)c(Cl)c3)c2cc1OC", "note": "[Tivozanib] + Nc1ncn([C@H]2C[C@H](O)[C@@H](CO)O2)c(=O)n1 [Decitabine] (partner 2 µM)", "values": [{"measurement": "relative viability", "setting": "[1]; first compound 0.005 µM", "value": 0.677}, {"measurement": "relative viability", "setting": "[1]; first compound 0.01581 µM", "value": 0.638}, {"measurement": "relative viability", "setting": "[1]; first compound 0.05 µM", "value": 0.731}, {"measurement": "relative viability", "setting": "[1]; first compound 0.1581 µM", "value": 0.627}, {"measurement": "relative viability", "setting": "[1]; first compound 0.5 µM", "value": 0.628}, {"measurement": "relative viability", "setting": "[2]; first compound 0.005 µM", "value": 0.391}, {"measurement": "relative viability", "setting": "[2]; first compound 0.01581 µM", "value": 0.398}, {"measurement": "relative viability", "setting": "[2]; first compound 0.05 µM", "value": 0.403}, {"measurement": "relative viability", "setting": "[2]; first compound 0.1581 µM", "value": 0.317}, {"measurement": "relative viability", "setting": "[2]; first compound 0.5 µM", "value": 0.372}, {"measurement": "relative viability", "setting": "[3]; first compound 0.005 µM", "value": 0.469}, {"measurement": "relative viability", "setting": "[3]; first compound 0.01581 µM", "value": 0.571}, {"measurement": "relative viability", "setting": "[3]; first compound 0.05 µM", "value": 0.59}, {"measurement": "relative viability", "setting": "[3]; first compound 0.1581 µM", "value": 0.652}, {"measurement": "relative viability", "setting": "[3]; first compound 0.5 µM", "value": 0.793}, {"measurement": "relative viability", "setting": "[4]; first compound 0.005 µM", "value": 0.613}, {"measurement": "relative viability", "setting": "[4]; first compound 0.01581 µM", "value": 0.612}, {"measurement": "relative viability", "setting": "[4]; first compound 0.05 µM", "value": 0.641}, {"measurement": "relative viability", "setting": "[4]; first compound 0.1581 µM", "value": 0.727}, {"measurement": "relative viability", "setting": "[4]; first compound 0.5 µM", "value": 0.639}, {"measurement": "relative viability", "setting": "[5]; first compound 0.005 µM", "value": 0.247}, {"measurement": "relative viability", "setting": "[5]; first compound 0.01581 µM", "value": 0.187}, {"measurement": "relative viability", "setting": "[5]; first compound 0.05 µM", "value": 0.2}, {"measurement": "relative viability", "setting": "[5]; first compound 0.1581 µM", "value": 0.256}, {"measurement": "relative viability", "setting": "[5]; first compound 0.5 µM", "value": 0.223}, {"measurement": "relative viability", "setting": "[6]; first compound 0.005 µM", "value": 0.318}, {"measurement": "relative viability", "setting": "[6]; first compound 0.01581 µM", "value": 0.314}, {"measurement": "relative viability", "setting": "[6]; first compound 0.05 µM", "value": 0.334}, {"measurement": "relative viability", "setting": "[6]; first compound 0.1581 µM", "value": 0.333}, {"measurement": "relative viability", "setting": "[6]; first compound 0.5 µM", "value": 0.363}, {"measurement": "relative viability", "setting": "[7]; first compound 0.005 µM", "value": 0.671}, {"measurement": "relative viability", "setting": "[7]; first compound 0.01581 µM", "value": 0.672}, {"measurement": "relative viability", "setting": "[7]; first compound 0.05 µM", "value": 0.732}, {"measurement": "relative viability", "setting": "[7]; first compound 0.1581 µM", "value": 0.713}, {"measurement": "relative viability", "setting": "[7]; first compound 0.5 µM", "value": 0.617}, {"measurement": "relative viability", "setting": "[8]; first compound 0.005 µM", "value": 0.493}, {"measurement": "relative viability", "setting": "[8]; first compound 0.01581 µM", "value": 0.428}, {"measurement": "relative viability", "setting": "[8]; first compound 0.05 µM", "value": 0.513}, {"measurement": "relative viability", "setting": "[8]; first compound 0.1581 µM", "value": 0.431}, {"measurement": "relative viability", "setting": "[8]; first compound 0.5 µM", "value": 0.5}, {"measurement": "relative viability", "setting": "[9]; first compound 0.005 µM", "value": 0.716}, {"measurement": "relative viability", "setting": "[9]; first compound 0.01581 µM", "value": 0.74}, {"measurement": "relative viability", "setting": "[9]; first compound 0.05 µM", "value": 0.688}, {"measurement": "relative viability", "setting": "[9]; first compound 0.1581 µM", "value": 0.744}, {"measurement": "relative viability", "setting": "[9]; first compound 0.5 µM", "value": 0.704}, {"measurement": "relative viability", "setting": "[10]; first compound 0.005 µM", "value": 0.514}, {"measurement": "relative viability", "setting": "[10]; first compound 0.01581 µM", "value": 0.538}, {"measurement": "relative viability", "setting": "[10]; first compound 0.05 µM", "value": 0.574}, {"measurement": "relative viability", "setting": "[10]; first compound 0.5 µM", "value": 0.499}, {"measurement": "relative viability", "setting": "[11]; first compound 0.005 µM", "value": 0.474}, {"measurement": "relative viability", "setting": "[11]; first compound 0.01581 µM", "value": 0.518}, {"measurement": "relative viability", "setting": "[11]; first compound 0.05 µM", "value": 0.562}, {"measurement": "relative viability", "setting": "[11]; first compound 0.5 µM", "value": 0.481}, {"measurement": "relative viability", "setting": "[12]; first compound 0.005 µM", "value": 0.658}, {"measurement": "relative viability", "setting": "[12]; first compound 0.01581 µM", "value": 0.595}, {"measurement": "relative viability", "setting": "[12]; first compound 0.05 µM", "value": 0.581}, {"measurement": "relative viability", "setting": "[12]; first compound 0.1581 µM", "value": 0.469}, {"measurement": "relative viability", "setting": "[12]; first compound 0.5 µM", "value": 0.592}, {"measurement": "relative viability", "setting": "[13]; first compound 0.005 µM", "value": 0.388}, {"measurement": "relative viability", "setting": "[13]; first compound 0.01581 µM", "value": 0.329}, {"measurement": "relative viability", "setting": "[13]; first compound 0.05 µM", "value": 0.382}, {"measurement": "relative viability", "setting": "[13]; first compound 0.1581 µM", "value": 0.369}, {"measurement": "relative viability", "setting": "[13]; first compound 0.5 µM", "value": 0.368}, {"measurement": "relative viability", "setting": "[14]; first compound 0.005 µM", "value": 0.463}, {"measurement": "relative viability", "setting": "[14]; first compound 0.01581 µM", "value": 0.495}, {"measurement": "relative viability", "setting": "[14]; first compound 0.05 µM", "value": 0.489}, {"measurement": "relative viability", "setting": "[14]; first compound 0.5 µM", "value": 0.458}, {"measurement": "relative viability", "setting": "[15]; first compound 0.005 µM", "value": 0.569}, {"measurement": "relative viability", "setting": "[15]; first compound 0.01581 µM", "value": 0.594}, {"measurement": "relative viability", "setting": "[15]; first compound 0.05 µM", "value": 0.62}, {"measurement": "relative viability", "setting": "[15]; first compound 0.1581 µM", "value": 0.57}, {"measurement": "relative viability", "setting": "[15]; first compound 0.5 µM", "value": 0.659}, {"measurement": "relative viability", "setting": "[16]; first compound 0.005 µM", "value": 0.187}, {"measurement": "relative viability", "setting": "[16]; first compound 0.01581 µM", "value": 0.217}, {"measurement": "relative viability", "setting": "[16]; first compound 0.05 µM", "value": 0.215}, {"measurement": "relative viability", "setting": "[16]; first compound 0.1581 µM", "value": 0.222}, {"measurement": "relative viability", "setting": "[16]; first compound 0.5 µM", "value": 0.206}, {"measurement": "relative viability", "setting": "[17]; first compound 0.005 µM", "value": 0.702}, {"measurement": "relative viability", "setting": "[17]; first compound 0.01581 µM", "value": 0.68}, {"measurement": "relative viability", "setting": "[17]; first compound 0.05 µM", "value": 0.696}, {"measurement": "relative viability", "setting": "[17]; first compound 0.1581 µM", "value": 0.665}, {"measurement": "relative viability", "setting": "[17]; first compound 0.5 µM", "value": 0.577}, {"measurement": "relative viability", "setting": "[18]; first compound 0.005 µM", "value": 0.361}, {"measurement": "relative viability", "setting": "[18]; first compound 0.01581 µM", "value": 0.362}, {"measurement": "relative viability", "setting": "[18]; first compound 0.05 µM", "value": 0.302}, {"measurement": "relative viability", "setting": "[18]; first compound 0.1581 µM", "value": 0.315}, {"measurement": "relative viability", "setting": "[18]; first compound 0.5 µM", "value": 0.394}, {"measurement": "relative viability", "setting": "[19]; first compound 0.005 µM", "value": 0.431}, {"measurement": "relative viability", "setting": "[19]; first compound 0.01581 µM", "value": 0.499}, {"measurement": "relative viability", "setting": "[19]; first compound 0.05 µM", "value": 0.446}, {"measurement": "relative viability", "setting": "[19]; first compound 0.1581 µM", "value": 0.482}, {"measurement": "relative viability", "setting": "[19]; first compound 0.5 µM", "value": 0.428}, {"measurement": "relative viability", "setting": "[20]; first compound 0.005 µM", "value": 0.363}, {"measurement": "relative viability", "setting": "[20]; first compound 0.01581 µM", "value": 0.363}, {"measurement": "relative viability", "setting": "[20]; first compound 0.05 µM", "value": 0.371}, {"measurement": "relative viability", "setting": "[20]; first compound 0.1581 µM", "value": 0.393}, {"measurement": "relative viability", "setting": "[20]; first compound 0.5 µM", "value": 0.435}, {"measurement": "relative viability", "setting": "[21]; first compound 0.005 µM", "value": 0.59}, {"measurement": "relative viability", "setting": "[21]; first compound 0.01581 µM", "value": 0.595}, {"measurement": "relative viability", "setting": "[21]; first compound 0.05 µM", "value": 0.657}, {"measurement": "relative viability", "setting": "[21]; first compound 0.1581 µM", "value": 0.478}, {"measurement": "relative viability", "setting": "[21]; first compound 0.5 µM", "value": 0.425}]}]}
